Broadly, the IC50 is the midpoint of a concentration-inhibition curve. Read a low IC50 as inhibition by little substance. One may read the microsomal CLint as the capacity of the preparation to metabolise the compound, expressed as a volume cleared per time. Low readings indicate slow turnover, high ones rapid turnover.

The source of these data is patent publication US8288370B2, “Substituted azetidine compounds of formula (I) useful in the treatment of functional gastrointestinal disorders, IBS, and functional dyspepsia” (Albireo AB, priority 2005, dated 2012).

SMILES strings stand for the structures. Counter-ions that a name gives are not always drawn.

Data set [1] addresses T1, human NK2 receptor (Homo sapiens, UniProt P21452).
T1 construct: expressed in transfected cells; hNK2R cDNA in pRc/CMV
T1 sequence (P21452 1-398): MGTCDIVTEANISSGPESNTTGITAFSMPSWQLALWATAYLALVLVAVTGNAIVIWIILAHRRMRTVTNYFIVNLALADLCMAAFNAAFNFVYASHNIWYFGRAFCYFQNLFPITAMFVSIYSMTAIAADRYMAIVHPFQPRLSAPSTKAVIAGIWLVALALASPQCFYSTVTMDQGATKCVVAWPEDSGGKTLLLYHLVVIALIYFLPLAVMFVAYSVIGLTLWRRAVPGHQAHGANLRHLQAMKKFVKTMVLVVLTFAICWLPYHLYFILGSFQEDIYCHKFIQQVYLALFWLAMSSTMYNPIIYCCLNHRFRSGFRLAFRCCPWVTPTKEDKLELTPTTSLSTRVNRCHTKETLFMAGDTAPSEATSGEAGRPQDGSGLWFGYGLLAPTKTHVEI
Briefly: FLIPR assay, inhibition of human NK2 receptor activation (intracellular Ca2+ increase). Format: cell-based. The following applies: CHO cells with human NK2 receptor, agonist NKA; pKB converted from IC50. As for the experimental part: (§1) Chinese Hamster Ovary (CHO) K1 cells (obtained from ATCC) were stably transfected with the human NK2 receptor (hNK2R cDNA in pRc/CMV, Invitrogen) or the human NK3 receptor (hNK3R in pcDNA 3.1/Hygro (+)/IRES/CD8, Invitrogen vector modified at AstraZeneca EST-Bio UK, Alderley Park). The cells were transfected with the cationic lipid reagent LIPOFECTAMINE™ (Invitrogen) and selection was performed with Geneticin (G418, Invitrogen) at 1 mg/ml for the hNK2R transfected cells and with Hygromycin (Invitrogen) at 500 μg/ml for the hNK3R transfected cells. Single cell clones were collected by aid of Fluorescence Activated Cell Sorter (FACS), tested for functionality in a FLIPR assay (see below), expanded in culture and cryopreserved for future use. CHO cells stably transfected with human NK1 receptors originates from AstraZeneca R&D, Wilmington USA. Human NK1 receptor cDNA (obtained from RNA-PCR from lung tissue) was subcloned into pRcCMV (Invitrogen). Transfection was performed by Calcium Phosphate and selection with 1 mg/ml G418. […]
(§2) The activity of a compound of the invention to inhibit NK1/NK2/NK3 receptor activation measured as NK1/NK2/NK3 receptor mediated increase in intracellular Ca^2+ was assessed by the following procedure: […]

In data set [2] the target is T2, human NK1 receptor (Homo sapiens, UniProt P25103).
T2 construct: expressed in transfected cells; cDNA in pRcCMV
As to the kind of experiment: FLIPR assay, inhibition of human NK1 receptor activation (intracellular Ca2+ increase). The data set is classed as cell-based. The following applies: CHO cells with human NK1 receptor, agonist Substance P; pKB converted from IC50. Here is the method: as §1, §2

Data set [3] deals with hERG-encoded potassium channel (Homo sapiens, UniProt Q12809). As to the kind of experiment: Activity against hERG (planar-array-based voltage clamp, Kiss et al.). Format: cell-based. From the text:
The activity of compounds according to formula I against the hERG-encoded potassium channel can be determined according to Kiss L, et al. Assay Drug Dev Technol. 1 (2003), 127-35: “High throughput ion-channel pharmacology: planar-array-based voltage clamp”.
(hERG is a cardiac potassium channel; its block is linked to QT prolongation.)

Data set [4] concerns the target T3, human NK3 receptor (Homo sapiens, UniProt P29371).
T3 construct: expressed in transfected cells; hNK3R in pcDNA 3.1/Hygro (+)/IRES/CD8
T3 sequence (P29371 1-465): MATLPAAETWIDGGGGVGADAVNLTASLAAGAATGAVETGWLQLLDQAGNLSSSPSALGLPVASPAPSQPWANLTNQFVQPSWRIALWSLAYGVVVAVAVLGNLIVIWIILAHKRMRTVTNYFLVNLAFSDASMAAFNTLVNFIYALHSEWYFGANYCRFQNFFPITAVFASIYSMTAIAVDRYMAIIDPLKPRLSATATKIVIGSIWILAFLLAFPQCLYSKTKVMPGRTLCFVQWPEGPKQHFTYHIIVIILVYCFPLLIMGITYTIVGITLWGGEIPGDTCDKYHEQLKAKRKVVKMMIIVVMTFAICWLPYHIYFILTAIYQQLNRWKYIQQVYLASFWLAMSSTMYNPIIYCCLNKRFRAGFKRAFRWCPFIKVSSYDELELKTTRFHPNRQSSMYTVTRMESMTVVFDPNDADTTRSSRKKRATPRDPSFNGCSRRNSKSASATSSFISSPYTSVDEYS
Briefly: FLIPR assay, inhibition of human NK3 receptor activation (intracellular Ca2+ increase). The following applies: CHO cells with human NK3 receptor, agonist Pro-7-NKB; pKB converted from IC50. Format: cell-based. Here is the method:
as §1, §2

Data set [5] has as its target CYP3A4 (Homo sapiens, UniProt P08684). Briefly: CYP3A4 inhibition assay (Bapiro et al.). Format: in vitro ADME. From the text: It is well known that severe problems such as toxicity may occur if plasma levels of one medication are altered by the co-administration of another drug. […] CYP (cytochrome P450) 3A4 is the most important enzyme in the human liver as a majority of oxidised drugs have been biotransformed by this enzyme. Accordingly, it is undesirable to employ a medication having a significant degree of such liver enzyme inhibiting properties. […] Thus, there is a need for a novel NK receptor antagonist with improved pharmacokinetic properties. The present invention provides compounds with CYP3A4 enzyme inhibiting properties at a low level, as comparatively high IC50 values are obtained in a CYP3A4 inhibiting assay. Said method for determining CYP3A4 inhibition is described in Bapiro et al; Drug Metab. Dispos. 29, 30-35 (2001).
The IC50 values tested according to Bapiro et al; Drug Metab. Dispos. 29, 30-35 (2001) were generally greater than 15 μM.

Data set [6] is described as follows: Metabolic stability in liver microsomes (intrinsic clearance). The data set is classed as in vitro ADME. The following applies: human, pH 7.4, HLM. As for the experimental part:
The rate of biotransformation can be measured as either metabolite(s) formation or the rate of disappearance of the parent compound. The experimental design involves incubation of low concentrations of substrate (usually 1.0 μM) with liver microsomes (usually 0.5 mg/ml) and taking out aliquotes at varying time points (usually 0, 5, 10, 15, 20, 30, 40 min.). The test compound is usually dissolved in DMSO. The DMSO concentration in the incubation mixture is usually 0.1% or less since more solvent can drastically reduce the activities of some CYP450s. Incubations are done in 100 mM potassium phosphate buffer, pH 7.4 and at 37° C. Acetonitrile or methanol is used to stop the reaction. The parent compound is analysed by HPLC-MS. From the calculated half-life, t1/2, the intrinsic clearance, Clint, is estimated by taking microsomal protein concentration and liver weight into account.
(Microsomes from liver hold many membrane-bound enzymes, among them those of drug oxidation.)

Data set [7] concerns Human Neurokinin-2 (NK2) Receptor. The following applies: literature statement; cited from earlier work.

Chain of hERG-encoded potassium channel (Q12809 whole entry): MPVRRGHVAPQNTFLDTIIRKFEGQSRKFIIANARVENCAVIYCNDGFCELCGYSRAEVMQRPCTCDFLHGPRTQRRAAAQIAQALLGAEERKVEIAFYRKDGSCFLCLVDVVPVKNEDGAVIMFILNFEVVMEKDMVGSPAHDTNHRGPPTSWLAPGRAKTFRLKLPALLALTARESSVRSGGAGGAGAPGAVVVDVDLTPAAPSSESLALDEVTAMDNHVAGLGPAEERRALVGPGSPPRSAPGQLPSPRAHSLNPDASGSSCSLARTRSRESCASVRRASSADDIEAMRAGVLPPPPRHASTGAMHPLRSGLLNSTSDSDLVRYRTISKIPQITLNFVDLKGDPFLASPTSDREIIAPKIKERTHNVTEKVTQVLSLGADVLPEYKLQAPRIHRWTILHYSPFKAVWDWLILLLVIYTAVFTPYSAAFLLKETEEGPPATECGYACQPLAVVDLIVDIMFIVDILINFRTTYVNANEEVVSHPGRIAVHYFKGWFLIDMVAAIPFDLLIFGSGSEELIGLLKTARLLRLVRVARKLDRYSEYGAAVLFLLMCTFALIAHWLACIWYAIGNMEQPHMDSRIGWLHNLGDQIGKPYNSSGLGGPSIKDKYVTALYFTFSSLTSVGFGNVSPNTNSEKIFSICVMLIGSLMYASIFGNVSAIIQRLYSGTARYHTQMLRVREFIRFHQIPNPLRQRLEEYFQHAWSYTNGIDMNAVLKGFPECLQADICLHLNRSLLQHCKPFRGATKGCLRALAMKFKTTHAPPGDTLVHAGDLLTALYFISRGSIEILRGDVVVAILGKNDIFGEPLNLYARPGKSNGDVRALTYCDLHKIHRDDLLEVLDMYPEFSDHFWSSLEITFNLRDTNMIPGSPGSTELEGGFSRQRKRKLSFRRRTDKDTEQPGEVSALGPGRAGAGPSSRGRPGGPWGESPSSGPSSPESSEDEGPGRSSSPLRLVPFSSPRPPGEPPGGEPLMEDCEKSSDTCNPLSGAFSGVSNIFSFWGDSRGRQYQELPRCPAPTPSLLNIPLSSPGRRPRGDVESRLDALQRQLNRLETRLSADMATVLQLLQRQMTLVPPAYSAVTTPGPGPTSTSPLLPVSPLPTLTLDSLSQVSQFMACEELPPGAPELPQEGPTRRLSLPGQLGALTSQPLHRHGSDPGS
T2 sequence (P25103 whole entry): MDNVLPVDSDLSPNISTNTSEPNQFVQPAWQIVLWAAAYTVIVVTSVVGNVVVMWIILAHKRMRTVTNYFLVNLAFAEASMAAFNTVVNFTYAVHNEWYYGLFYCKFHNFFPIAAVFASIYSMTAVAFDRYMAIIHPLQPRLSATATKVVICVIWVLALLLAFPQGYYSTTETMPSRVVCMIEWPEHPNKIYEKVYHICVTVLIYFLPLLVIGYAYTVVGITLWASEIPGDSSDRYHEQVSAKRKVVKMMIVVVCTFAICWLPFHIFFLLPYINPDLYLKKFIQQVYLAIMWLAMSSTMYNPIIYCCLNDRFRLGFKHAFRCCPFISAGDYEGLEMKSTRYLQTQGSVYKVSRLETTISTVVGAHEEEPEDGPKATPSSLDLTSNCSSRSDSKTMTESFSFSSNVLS
Chain of CYP3A4 (P08684 whole entry): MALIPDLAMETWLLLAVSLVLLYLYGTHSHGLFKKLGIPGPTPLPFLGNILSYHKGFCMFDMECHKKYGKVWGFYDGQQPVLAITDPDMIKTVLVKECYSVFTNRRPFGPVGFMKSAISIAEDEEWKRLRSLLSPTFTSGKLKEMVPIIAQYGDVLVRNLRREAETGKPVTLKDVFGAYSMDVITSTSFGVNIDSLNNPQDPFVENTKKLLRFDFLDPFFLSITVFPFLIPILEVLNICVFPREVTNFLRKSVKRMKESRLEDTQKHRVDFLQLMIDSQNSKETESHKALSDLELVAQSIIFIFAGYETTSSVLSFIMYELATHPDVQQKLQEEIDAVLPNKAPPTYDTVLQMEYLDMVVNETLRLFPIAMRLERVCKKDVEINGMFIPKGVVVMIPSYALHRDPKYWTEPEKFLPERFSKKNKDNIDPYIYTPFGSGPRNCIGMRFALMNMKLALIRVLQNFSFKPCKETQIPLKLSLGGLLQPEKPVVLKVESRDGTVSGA

`CN(C[C@@H](CCN1CC(N2CCN3C(=O)CC[C@@H]3C2)C1)c1ccc(F)cc1)C(=O)c1cc(Br)cc(C(F)(F)F)c1` [Ex 1, 3-Bromo-N-((2S)-2-(4-fluorophenyl)-4-{3-[(8aR)-6-oxohexahydropyrrolo[1,2-a]pyrazin-2(1H)-yl]azetidin-1-yl}butyl)-N-methyl-5-(trifluoromethyl)benzamide dihydrochloride]: the Kb in data set [1] is 0.0158 µM; in data set [2] it was 0.002 µM; in data set [4], 0.00316 µM. Besides, the figures for the IC50 in data set [3] and in data set [5] were 12.4 µM and more than 50 µM, respectively. Besides, in data set [6], the microsomal CLint at 1 μM was 14 µL/min/mg.
On to `CN(CC(CCN1CC(N2CCOCC2)C1)c1ccc(Cl)c(Cl)c1)C(=O)c1ccccc1` (stereo not shown) [N-[2-(3,4-dichlorophenyl)-4-(3-morpholin-4-ylazetidin-1-yl)butyl]-N-methylbenzamide], for which the “functional NK2 receptor antagonistic properties” value in data set [7] is “possess functional NK2 receptor antagonistic properties”.
